The target in one assay is T1, MAO-B (Homo sapiens, UniProt P27338).
T1 sequence (P27338 1-520): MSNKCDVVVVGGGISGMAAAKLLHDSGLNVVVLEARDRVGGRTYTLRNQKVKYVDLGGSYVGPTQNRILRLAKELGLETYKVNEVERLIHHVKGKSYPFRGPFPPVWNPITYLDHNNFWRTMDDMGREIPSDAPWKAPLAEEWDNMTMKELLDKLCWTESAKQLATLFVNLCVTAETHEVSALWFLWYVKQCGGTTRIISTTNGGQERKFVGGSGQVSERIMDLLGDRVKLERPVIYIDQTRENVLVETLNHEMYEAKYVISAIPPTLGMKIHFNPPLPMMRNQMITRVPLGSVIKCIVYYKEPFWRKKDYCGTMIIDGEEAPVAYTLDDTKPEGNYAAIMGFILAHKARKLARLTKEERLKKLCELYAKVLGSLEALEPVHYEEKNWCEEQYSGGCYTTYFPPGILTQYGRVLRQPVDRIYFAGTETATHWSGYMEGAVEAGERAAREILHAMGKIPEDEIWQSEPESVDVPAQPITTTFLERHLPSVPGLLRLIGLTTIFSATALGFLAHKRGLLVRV
Briefly: biochemical. The settings on record: MAO-B, IC50, Table 1; mean ± SEM, eight-point experiments, three independent experiments.

The target in assay [1] is T2, MAO-A (Homo sapiens, UniProt P21397).
T2 sequence (P21397 1-527): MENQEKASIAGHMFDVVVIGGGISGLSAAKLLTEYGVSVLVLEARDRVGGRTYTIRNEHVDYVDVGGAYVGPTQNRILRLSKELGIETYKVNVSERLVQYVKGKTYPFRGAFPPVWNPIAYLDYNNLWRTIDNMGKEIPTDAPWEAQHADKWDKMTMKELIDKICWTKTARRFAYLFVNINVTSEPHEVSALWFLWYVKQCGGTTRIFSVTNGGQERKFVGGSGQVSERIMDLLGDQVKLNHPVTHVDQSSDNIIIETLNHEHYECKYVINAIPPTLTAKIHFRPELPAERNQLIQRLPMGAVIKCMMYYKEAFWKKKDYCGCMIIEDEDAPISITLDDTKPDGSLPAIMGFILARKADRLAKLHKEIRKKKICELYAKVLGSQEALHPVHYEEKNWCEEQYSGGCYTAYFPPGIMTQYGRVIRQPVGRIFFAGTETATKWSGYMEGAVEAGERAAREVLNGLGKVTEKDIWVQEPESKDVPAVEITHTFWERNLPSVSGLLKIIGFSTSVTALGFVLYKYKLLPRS
The settings on record: IC50 values for LSD1 vs. MAO-A.
Experimental: (§1) MAO-A and MAO-B enzymes were purchased from Sigma-Aldrich and the inhibition assay was tested with Promega MAO-Glo™ Assay kit according to the manufacturer's protocol. The luminescent signals were detected using Envision (PerkinElmer). The test was carried out in triplicate. And the IC50 data was calculated using the software GraphPad Prism 5, and chosen the equation “sigmoidal dose–response (variable slope)” for curve fitting.

Assay [2] deals with T3, Recombinant human LSD1 (172–852 aa) (Homo sapiens, UniProt O60341). Briefly: biochemical.
Experimental: (§2) LSD1 or LSD2 enzyme inhibition assay was performed with Lance Ultra LSD1 Histone H3-Lysine 4 Demethylase Assay kit (Perkin Elmer) according to the manufacturer's protocol. […] The test was carried out in triplicate. And the IC50 data was calculated using the software GraphPad Prism 5, and chosen the equation “sigmoidal dose–response (variable slope)” for curve fitting.
In assay [3] the target is T2, MAO-A. Briefly: biochemical. Conditions: MAO-A, IC50, Table 1; mean ± SEM, eight-point experiments, three independent experiments.
Experimental: as §1
The target of another assay is T4, full-length LSD2 (Homo sapiens, UniProt Q8NB78).
T4 sequence (Q8NB78 1-822): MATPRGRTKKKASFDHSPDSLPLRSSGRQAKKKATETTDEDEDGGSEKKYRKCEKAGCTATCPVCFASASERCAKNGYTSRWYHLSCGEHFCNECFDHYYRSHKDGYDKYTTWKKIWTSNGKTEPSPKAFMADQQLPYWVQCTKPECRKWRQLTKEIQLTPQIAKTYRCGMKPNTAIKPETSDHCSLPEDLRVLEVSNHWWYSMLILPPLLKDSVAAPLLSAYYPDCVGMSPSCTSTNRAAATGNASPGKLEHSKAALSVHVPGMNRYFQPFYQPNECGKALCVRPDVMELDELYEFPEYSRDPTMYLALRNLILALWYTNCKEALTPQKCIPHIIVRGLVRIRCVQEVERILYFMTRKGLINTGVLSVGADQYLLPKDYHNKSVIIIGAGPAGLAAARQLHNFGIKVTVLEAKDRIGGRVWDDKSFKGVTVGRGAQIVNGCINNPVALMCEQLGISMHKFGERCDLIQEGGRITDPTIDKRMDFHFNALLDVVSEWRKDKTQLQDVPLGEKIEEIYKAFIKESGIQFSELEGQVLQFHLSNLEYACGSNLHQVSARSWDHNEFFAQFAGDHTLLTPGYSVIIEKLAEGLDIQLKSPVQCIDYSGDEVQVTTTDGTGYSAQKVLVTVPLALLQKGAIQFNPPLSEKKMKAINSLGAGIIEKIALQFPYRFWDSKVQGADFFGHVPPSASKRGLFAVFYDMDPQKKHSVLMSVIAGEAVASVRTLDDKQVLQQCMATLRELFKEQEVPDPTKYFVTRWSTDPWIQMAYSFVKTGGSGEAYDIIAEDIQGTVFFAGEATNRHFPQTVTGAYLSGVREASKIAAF
In words: LSD2 inhibition assay (Lance Ultra kit, TR-FRET). Format: biochemical. For orientation: In TR-FRET formats the signal depends on donor and acceptor labels being close together.

Assay [4] addresses T3, Recombinant human LSD1 (172–852 aa). Conditions: 23a, 23b vs 21a, 21b.
Experimental: as §2

SMILES strings stand for the structures.

The record followed here is publication PMC9077246, “Novel spirocyclic tranylcypromine derivatives as lysine-specific demethylase 1 (LSD1) inhibitors” (RSC Advances, 2018).

Broadly, the IC50 is the concentration needed to halve the response being measured.

Experimental for MAO-B: as §1
Experimental for full-length LSD2: as §2

On to `COc1cc(F)ccc1CN[C@H]1CC12CCc1ccccc12` (stereo in doubt) [Compound 18b, (2S)-N-(4-Fluoro-2-methoxybenzyl)-2′,3′-dihydrospiro[cyclopropane-1,1′-inden]-2-amine], for which the IC50 was 31 ± 4 µM against MAO-B, 0.015 ± 0.003 µM in assay [2], 0.09 ± 0.01 µM against MAO-A [3] and 0.49 ± 0.1 µM against full-length LSD2. In addition, the “selectivity index LSD1 vs. MAO-A in words” value at MAO-A [1] is given as “low”.

`c1ccc(CN[C@H]2CC23CCc2ccccc23)cc1` (stereo in doubt) [Compound 13b, (2S)-N-Benzyl-2′,3′-dihydrospiro[cyclopropane-1,1′-inden]-2-amine]: the IC50 stood at 5.1 ± 0.1 µM against MAO-B, 0.11 ± 0.02 µM in assay [2], 0.13 ± 0.01 µM at MAO-A [3] and 2 ± 0.2 µM on full-length LSD2. For the same molecule, at MAO-A [1], the “selectivity index LSD1 vs. MAO-A in words” value was “low”.

Take `Fc1ncccc1CN[C@@H]1CC12CCc1ccccc12` (mixture of isomers) [Compound 23a, (2R)-N-((2-Fluoropyridin-3-yl)methyl)-2′,3′-dihydrospiro[cyclopropane-1,1′-inden]-2-amine]: the IC50 was 8.2 ± 1.5 µM against MAO-B, 0.064 ± 0.001 µM in assay [2], 9.7 ± 1.5 µM against MAO-A [3] and 13 ± 3 µM at full-length LSD2. Besides, in assay [4], the “fold less potent at LSD1 than the unsubstituted derivatives 21a and 21b” value is “approximately 4 fold”.
